Results as given in patent publication US20050009924A1 (priority 2003, published 2005).

Tests used:
[1] = MTT relative viability, PhTERT-SEAP (hTERT-BJ1) cells; conditions: human; for viability at 48 h, 218 µM / viability at 48 h, 205 µM: hTERT-BJ1 cells stably transfected with PhTERT-SEAP reporter
[2] = test system: rat glioma C6 cells; assay: Cytotoxicity assay (XTT colorimetric), C6 cells; format: cell-based; conditions: Rattus norvegicus, C6; 48 h of drug exposure
[3] = test system: transcriptional activity of hTERT; assay: SEAP reporter assay of hTERT expression, PhTERT-SEAP (hTERT-BJ1); format: cell-based, human; conditions: PhTERT-SEAP (hTERT-BJ1)
Method in brief: (§1)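 H1299 or hTERT-BJ1 cells stably carrying hTERT- or CMV-promoter–SEAP constructs (G418-selected), treated with compounds for 24 h at 37 °C. Media heated 65 °C for 10 min, mixed with diethanolamine buffer and 12 mM p-nitrophenyl phosphate; SEAP activity taken as the rate of A405 increase.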

[4] = test system: human hepatoma G2 cells; assay: Cytotoxicity assay (XTT colorimetric), Hep G2; format: cell-based; conditions: Homo sapiens, HepG2; 48 h of drug exposure
[5] = test system: transcriptional activity of hTERT; assay: SEAP reporter assay of hTERT expression, PhTERT-SEAP (H1299); format: cell-based, human; conditions: PhTERT-SEAP(hTERT-H1299)
Method in brief: as §1

[6] = test system: hepatitis B virus transfected hepatoma cell lines, HepG 2.2.15 cells; assay: Cytotoxicity assay, 2.2.15 cells; format: cell-based, human; conditions: Homo sapiens, HepG2.2.15; 48 h of drug exposure
[7] = MTT relative viability, PhTERT-SEAP (H1299) cells; conditions: human
[8] = hTERT-BJ1 cells, stable PhTERT-SEAP reporter clone
[9] = Homo sapiens, 2.1 μM, read-out: Relative SEAP activity (%)
[10] = Homo sapiens, 21 μM, read-out: Relative SEAP activity (%)
[11] = Homo sapiens, 218 μM, read-out: Relative SEAP activity (%)
[12] = Homo sapiens, NCI-H1299, 2.1 μM, read-out: Relative SEAP activity (%)
[13] = Homo sapiens, NCI-H1299, 21 μM, read-out: Relative SEAP activity (%)
[14] = Homo sapiens, NCI-H1299, 218 μM, read-out: Relative SEAP activity (%)
[15] = Homo sapiens, 2.0 μM, read-out: Relative SEAP activity (%)
[16] = Homo sapiens, 20 μM, read-out: Relative SEAP activity (%)
[17] = Homo sapiens, 205 μM, read-out: Relative SEAP activity (%)
[18] = Homo sapiens, NCI-H1299, 2.0 μM, read-out: Relative SEAP activity (%)
[19] = Homo sapiens, NCI-H1299, 20 μM, read-out: Relative SEAP activity (%)
[20] = Homo sapiens, NCI-H1299, 205 μM, read-out: Relative SEAP activity (%)

`CC(Cl)C(=O)Nc1ccc(NC(=O)C(C)Cl)c2c1C(=O)c1ccccc1C2=O` (stereo not drawn) [VI9, 1,4-Bis(2-chloropropionamido)-9,10-anthracenedione] showed a viability at 48 h, 2.3 µM [1, 8] of 94 ± 10.4%, a viability at 48 h, 23 µM [1, 8] of 68 ± 8.2% and a viability at 48 h, 238 µM [1, 8] of 48 ± 2.3%. For the same compound, the IC50 [2] was greater than 20 µM, the melting point was 233 to 235 °C and the SEAP/vibility ([3]; 2.3 μM) was 0.97. It also gave an SEAP/vibility ([3]; 23 μM) of 1.49, an SEAP/vibility ([3]; 238 μM) of 1.68 and an activity at 2.3 µM ([3]; Homo sapiens, 2.3 μM, read-out: Relative SEAP activity (%)) of 91 ± 10.8%. It also gave an activity at 23 µM ([3]; Homo sapiens, 23 μM, read-out: Relative SEAP activity (%)) of 101 ± 8.4%, an activity at 238 µM ([3]; Homo sapiens, 238 μM, read-out: Relative SEAP activity (%)) of 81 ± 8.5% and an IC50 [4] greater than 20 µM. For the same compound, the SEAP/vibility ([5]; 2.3 μM) was 0.96, the SEAP/vibility ([5]; 23 μM) was 1.40 and the SEAP/vibility ([5]; 238 μM) was 7.82. For the same compound, the activity at 2.3 µM ([5]; Homo sapiens, NCI-H1299, 2.3 μM, read-out: Relative SEAP activity (%)) was 106 ± 5.5%, the activity at 23 µM ([5]; Homo sapiens, NCI-H1299, 23 μM, read-out: Relative SEAP activity (%)) was 109 ± 1% and the activity at 238 µM ([5]; Homo sapiens, NCI-H1299, 238 μM, read-out: Relative SEAP activity (%)) was 85 ± 5.3%. The IC50 [6] was greater than 20 µM, the viability at 48 h, 2.3 µM [7] was 111 ± 5.5% and the viability at 48 h, 23 µM [7] was 77 ± 3.4%. The viability at 48 h, 238 µM [7] was 11 ± 1.4%.

In the case of `O=C1c2ccccc2C(=O)c2c(NC(=O)C3CCCCC3)ccc(NC(=O)C3CCCCC3)c21` [VI17, 1,4-Bis(cyclohexaneamido)-9,10-anthracenedione], the viability at 48 h, 218 µM [1] is reported as 83 ± 4.2%, the viability at 48 h, 2.1 µM [1, 8] is reported as 102 ± 3% and the viability at 48 h, 21 µM [1, 8] is reported as 97 ± 2.4%. For the same compound, the IC50 [2] was greater than 20 µM, the melting point was 309 to 310 °C and the SEAP/vibility ([3]; 2.1 μM) was 0.64. It also gave an SEAP/vibility ([3]; 21 μM) of 0.44, an SEAP/vibility ([3]; 218 μM) of 0.68 and an activity at 2.1 µM [3, 9] of 65 ± 16%. It also gave an activity at 21 µM [3, 10] of 42 ± 24.3%, an activity at 218 µM [3, 11] of 56 ± 16.3% and an IC50 [4] greater than 20 µM. For the same compound, the SEAP/vibility ([5]; 2.1 μM) was 1.00, the SEAP/vibility ([5]; 21 μM) was 1.05 and the SEAP/vibility ([5]; 218 μM) was 1.38. It also gave an activity at 2.1 µM [5, 12] of 104 ± 1.8%, an activity at 21 µM [5, 13] of 100 ± 6.2% and an activity at 218 µM [5, 14] of 93 ± 2.5%. It also gave an IC50 [6] greater than 20 µM, a viability at 48 h, 2.1 µM [7] of 104 ± 6.4% and a viability at 48 h, 21 µM [7] of 96 ± 5.8%. It also gave a viability at 48 h, 218 µM [7] of 67 ± 1.5%.

With `O=C(CCC1CCCC1)Nc1ccc(NC(=O)CCC2CCCC2)c2c1C(=O)c1ccccc1C2=O` [VI19, 1,4-Bis(3-cyclopentanepropionamido)-9,10-anthracenedione] the viability at 48 h, 205 µM [1] was 100 ± 5.8%, the viability at 48 h, 2 µM [1, 8] was 107 ± 3.6% and the viability at 48 h, 20 µM [1, 8] was 101 ± 4.7%. It also gave an IC50 [2] greater than 20 µM, a melting point of 166 to 167 °C and an SEAP/vibility ([3]; 2.0 μM) of 0.84. For the same compound, the SEAP/vibility ([3]; 20 μM) was 0.87, the SEAP/vibility ([3]; 205 μM) was 0.87 and the activity at 2 µM [3, 15] was 90 ± 9.2%. It also gave an activity at 20 µM [3, 16] of 87 ± 5.5%, an activity at 205 µM [3, 17] of 87 ± 8% and an IC50 [4] greater than 20 µM. It also gave an SEAP/vibility ([5]; 2.0 μM) of 1.06, an SEAP/vibility ([5]; 20 μM) of 1.09 and an SEAP/vibility ([5]; 205 μM) of 1.15. For the same compound, the activity at 2 µM [5, 18] was 111 ± 9.4%, the activity at 20 µM [5, 19] was 116 ± 8% and the activity at 205 µM [5, 20] was 109 ± 9.2%. The IC50 [6] was greater than 20 µM, the viability at 48 h, 2 µM [7] was 105 ± 2.1% and the viability at 48 h, 20 µM [7] was 106 ± 4.7%. It also gave a viability at 48 h, 205 µM [7] of 95 ± 1.3%.

In the case of `O=C(Nc1ccc(NC(=O)c2cccs2)c2c1C(=O)c1ccccc1C2=O)c1cccs1` [VI22, 1,4-Bis(2-thiopheneamido)-9,10-anthracenedione], the viability at 48 h, 218 µM [1] is reported as 84 ± 6.9%, the viability at 48 h, 2.1 µM [1, 8] is reported as 118 ± 10.6% and the viability at 48 h, 21 µM [1, 8] is reported as 99 ± 8.2%. It also gave an IC50 [2] greater than 20 µM, a melting point of 321 to 322 °C and an SEAP/vibility ([3]; 2.1 μM) of 0.80. It also gave an SEAP/vibility ([3]; 21 μM) of 0.93, an SEAP/vibility ([3]; 218 μM) of 1.07 and an activity at 2.1 µM [3, 9] of 94 ± 20.2%. It also gave an activity at 21 µM [3, 10] of 92 ± 17.4%, an activity at 218 µM [3, 11] of 90 ± 22.7% and an IC50 [4] greater than 20 µM. It also gave an SEAP/vibility ([5]; 2.1 μM) of 0.93, an SEAP/vibility ([5]; 21 μM) of 0.98 and an SEAP/vibility ([5]; 218 μM) of 1.16. It also gave an activity at 2.1 µM [5, 12] of 100 ± 3.1%, an activity at 21 µM [5, 13] of 105 ± 5.9% and an activity at 218 µM [5, 14] of 97 ± 4.9%. For the same compound, the IC50 [6] was greater than 20 µM, the viability at 48 h, 2.1 µM [7] was 108 ± 3.7% and the viability at 48 h, 21 µM [7] was 107 ± 8.5%. It also gave a viability at 48 h, 218 µM [7] of 84 ± 4.3%.

With `O=C(Cc1cccs1)Nc1ccc(NC(=O)Cc2cccs2)c2c1C(=O)c1ccccc1C2=O` [VI25, 1,4-Bis(2-thiopheneacetamido)-9,10-anthracenedione] the viability at 48 h, 205 µM [1] was 76 ± 6.5%, the viability at 48 h, 2 µM [1, 8] was 116 ± 7.5% and the viability at 48 h, 20 µM [1, 8] was 105 ± 4.4%. For the same compound, the IC50 [2] was greater than 20 µM, the melting point was 158 to 160 °C and the SEAP/vibility ([3]; 2.0 μM) was 0.45. For the same compound, the SEAP/vibility ([3]; 20 μM) was 0.38, the SEAP/vibility ([3]; 205 μM) was 0.19 and the activity at 2 µM [3, 15] was 53 ± 17.4%. It also gave an activity at 20 µM [3, 16] of 40 ± 12.7%, an activity at 205 µM [3, 17] of 14 ± 24.1% and an IC50 [4] greater than 20 µM. It also gave an SEAP/vibility ([5]; 2.0 μM) of 1.06, an SEAP/vibility ([5]; 20 μM) of 1.39 and an SEAP/vibility ([5]; 205 μM) of 2.47. It also gave an activity at 2 µM [5, 18] of 111 ± 3.7%, an activity at 20 µM [5, 19] of 115 ± 4.3% and an activity at 205 µM [5, 20] of 102 ± 5.5%. It also gave an IC50 [6] of 15.5 µM, a viability at 48 h, 2 µM [7] of 104 ± 8% and a viability at 48 h, 20 µM [7] of 83 ± 6.6%. The viability at 48 h, 205 µM [7] was 41 ± 4%.

In the case of `O=C(Cc1ccc(F)cc1)Nc1ccc(NC(=O)Cc2ccc(F)cc2)c2c1C(=O)c1ccccc1C2=O` [VI32, 1,4-Bis(4-fluorophenylacetamido)-9,10-anthracenedione], the viability at 48 h, 1.9 µM [1, 8] is reported as 107 ± 7.2%, the viability at 48 h, 19 µM [1, 8] is reported as 100 ± 6.3% and the viability at 48 h, 195 µM [1, 8] is reported as 96 ± 4.1%. It also gave an IC50 [2] greater than 20 µM, a melting point of 228 to 230 °C and an SEAP/vibility ([3]; 1.9 μM) of 0.84. It also gave an SEAP/vibility ([3]; 19 μM) of 1.02, an SEAP/vibility ([3]; 195 μM) of 1.01 and an activity at 1.9 µM ([3]; Homo sapiens, 1.9 μM, read-out: Relative SEAP activity (%)) of 90 ± 18.4%. For the same compound, the activity at 19 µM ([3]; Homo sapiens, 19 μM, read-out: Relative SEAP activity (%)) was 102 ± 20%, the activity at 195 µM ([3]; Homo sapiens, 195 μM, read-out: Relative SEAP activity (%)) was 97 ± 11.6% and the IC50 [4] was greater than 20 µM. For the same compound, the SEAP/vibility ([5]; 1.9 μM) was 1.00, the SEAP/vibility ([5]; 19 μM) was 1.03 and the SEAP/vibility ([5]; 195 μM) was 1.39. It also gave an activity at 1.9 µM ([5]; Homo sapiens, NCI-H1299, 1.9 μM, read-out: Relative SEAP activity (%)) of 109 ± 10.8%, an activity at 19 µM ([5]; Homo sapiens, NCI-H1299, 19 μM, read-out: Relative SEAP activity (%)) of 109 ± 5.8% and an activity at 195 µM ([5]; Homo sapiens, NCI-H1299, 195 μM, read-out: Relative SEAP activity (%)) of 109 ± 6.6%. The IC50 [6] was greater than 20 µM, the viability at 48 h, 1.9 µM [7] was 108 ± 8.8% and the viability at 48 h, 19 µM [7] was 107 ± 7.5%. For the same compound, the viability at 48 h, 195 µM [7] was 78 ± 8%.
